Values after ≈ are worked out from the molar mass of the structure shown. “Also recorded” adds a separate entry of the source. Read-outs that look alike come from different tables or passages of the source. Positions of bridges follow the written chain, without caps; N, C: chain ends. Non-standard residues stand in square brackets, D forms with d. Residues, ends and D or L forms follow the SMILES beside them.

The subject of data set [1] is pepsin. As to the kind of experiment: pepsin solution in HCl 0.01 M (pH 2). Particulars: 37 °C, up to 2-20 h.
Data set [2] concerns pepsin. As to the kind of experiment: pepsin, temperature increased to 50 °C. Particulars: up to 19 h.
The subject of data set [3] is thermolysin. Put plainly: thermolysin in 50 mM TRIS pH 8, 0.5 mM CaCl2 buffer. Particulars: 70 °C, up to 30 min.
In data set [4] the test system is carboxypeptidase Y. As to the kind of experiment: carboxypeptidase Y solution in MES buffer (50 mM MES, 1 mM CaCl2 at pH 6.75). Particulars: 25 °C, up to 4 h.
Data set [5] deals with Escherichia coli MDR 208691. The data set is classed as cell-based. Particulars: MDR 208691, 24 h. How it is done:
(§1) All experiments were performed in triplicate.

Data set [6] has as its system Escherichia coli MDR 239910. In kind it is cell-based. Conditions: MDR 239910, 24 h. How it is done:
as §1

The test system of data set [7] is Escherichia coli MDR 246415. In kind it is cell-based. Particulars: MDR 246415, 24 h. How it is done: as §1
The test system of data set [8] is Escherichia coli MDR 39255. The data set is classed as cell-based. Particulars: MDR 39255, 24 h. On the procedure:
as §1

For data set [9], the system named is Salmonella typhimurium SY5015. In kind it is cell-based. Particulars: murium SY5015, 24 h. On the procedure:
as §1

The subject of data set [10] is eight Gram-negative strains. Put plainly: MIC, broth microdilution. Particulars: all eight strains tested; summary of Table 1. In kind it is cell-based. How it is done:
as §1
On the technique in general: Dilution methods test growth across graded concentrations, often in twofold steps.

The subject of data set [11] is Bacterial biofilms. Put plainly: Minimal biofilm eradication concentration (MBEC). The data set is classed as cell-based. Particulars: in all cases; peg-lid biofilms, MHBCA, 24 h exposure at 37 °C, OD 620 nm, triplicate. On the procedure: MBEC was determined as described by Moskowitz et al.. Bacterial biofilms were formed by immersing the pegs of a modified polystyrene microtiter lid into 96-well microtiter plates, each containing 200 µL of Muller-Hinton broth cation adjusted (MHBCA), followed by incubation at 37 °C for 24 h. Pegs were then gently rinsed in a 0.9% w/v NaCl solution and biofilms were exposed to a range of concentrations of antimicrobials for 24 h at 37 °C. Pegs were again rinsed with a 0.9% w/v NaCl solution and biofilms were removed by 10 min sonication. Recovered bacteria were incubated for 24 h at 37 °C. Optical densities at 620 nm were measured in order to determine MBEC values, defined as the lowest concentration of antimicrobial that prevented bacterial regrowth from the treated biofilm. All experiments were performed in triplicate.

For data set [12], the target named is pepsin (Sus scrofa, UniProt P00791). Particulars: for Hydrolysis by pepsin at 37 °C: pepsin 1 mg/mL in HCl 0.01 M, pH 2, 37 °C, several hours, LC-MS; for Cleavage by pepsin at 50 °C: pH 2, 50 °C, 19 h, RP-HPLC. The text has this: Materials and reagents. Methanol was purchased from Scharlau, while acetonitrile was obtained from SDS. NaOH, 2,2,2-trifluoroethanol, pepsin, thermolysin were obtained from Sigma-Aldrich, while carboxypeptidase Y was purchased from Alfa Aesar. E. coli BL21 (DE3), which was used for heterologous expression, was purchased from Invitrogen. Bacterial strains were isolated from clinical specimens in the Microbiology Service of the Hospital Universitari de Bellvitge (Spain).
Chain of pepsin (Sus scrofa, UniProt P00791) (P00791 60-385): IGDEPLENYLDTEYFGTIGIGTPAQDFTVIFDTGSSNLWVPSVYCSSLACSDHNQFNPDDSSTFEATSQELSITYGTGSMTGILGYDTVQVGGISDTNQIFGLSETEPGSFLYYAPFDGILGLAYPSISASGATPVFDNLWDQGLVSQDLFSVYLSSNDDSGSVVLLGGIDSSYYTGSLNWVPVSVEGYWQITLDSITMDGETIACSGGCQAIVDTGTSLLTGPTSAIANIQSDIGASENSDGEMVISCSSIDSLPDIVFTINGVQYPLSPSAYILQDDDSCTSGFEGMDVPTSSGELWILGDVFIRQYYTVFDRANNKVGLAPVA
Collistin sulfate was supplied by Zhejiang Shenghua Biok Biology Co. LTD, China. Mueller-Hinton Broth (MHB) was obtained from Scharlau (Spain). […]
Then, 30 µL of NaOH 0.5 M (pH 12) was added, and the mixture was stirred overnight at 40 °C. […]
Pepsin. Purified peptide (20 µg) was dissolved in 150 µL HCl 0.01 M (pH 2). 40 µL of pepsin solution in HCl 0.01 M (1 mg/mL) was added to the peptide solution and incubated for 2-20 h at […]

Data set [13] addresses T1, thermolysin (Bacillus thermoproteolyticus, UniProt P00800).
T1 construct: purchased Sigma-Aldrich
As to the kind of experiment: Thermolysin stability assay. Conditions: thermolysin 1 mg/mL, 50 mM Tris pH 8, 0.5 mM CaCl2, 30 min at 70 °C, LC-MS; loss of 137 Da (Val11-Gly12). The data set is classed as in vitro ADME. On the procedure: Materials and reagents. Methanol was purchased from Scharlau, while acetonitrile was obtained […]
while carboxypeptidase Y was purchased from Alfa Aesar. E. coli BL21 (DE3), which was used for heterologous expression, was purchased from Invitrogen. Bacterial strains were isolated from […]
Hinton Broth (MHB) was obtained from Scharlau (Spain).
10 µL of 0.5 M NaOH was added.
LC-MS. […] For the isolation and […]
in 400 µL of H 2O-ACN (1:1). […]
was stirred overnight at 40 °C.
MES, 1 mM CaCl 2 at pH 6.75).
The reaction was quenched by
Pepsin. […] 40 µL of pepsin
Figure S6. RP-HPLC chromatograms and ESI + spectra after 30 min of thermolysin treatment at 70 °C in 50 mM TRIS pH 8, 0.5 mM CaCl 2 buffer. a) New compound, b) native MccJ25 and c) co-injection of the two peptides after the thermolysin cleavage. Conditions: XBridge C18 2.5 µm (4.6 mm x 75 mm) reversed-phase analytical column; linear gradient from 30% to 60% of ACN over 8 […]

The conditions of data set [14]: cited from earlier work. How it is done:
(§2) Moreover, it is stable to highly denaturing conditions, such as 8 M urea and temperatures above 100 °C [6].

Data set [15] concerns chymotrypsin, trypsin and pepsin. Conditions: cited from earlier work. On the procedure:
as §2

Data set [16] relates to Salmonella enterica ATCC 13076. Particulars: broth microdilution, MHB, 37 °C, 24 h, visual turbidity, triplicate. How it is done: (§3) MIC values were determined by the broth microdilution method and interpreted following the guidelines of the Clinical & Laboratory Standards Institute (CLSI) and European Committee on Antimicrobial Susceptibility Testing (EUCAST). The different strains were grown in Mueller-Hinton broth (MHB) overnight at 37 °C with shaking at 200 rpm. The bacterial cultures were then adjusted to OD625nm of 0.08–0.1 and diluted 1:100 in fresh MHB medium. Next, 5 µL of each diluted suspension was added to 96-well plates previously filled with MHB and serially diluted peptides. […] All experiments were performed in triplicate.

The subject of data set [17] is Salmonella enterica ATCC 49214. Particulars: broth microdilution, MHB, 37 °C, 24 h, visual turbidity, triplicate. How it is done:
as §3

Data set [18] has as its system pepsin. Conditions: cited from earlier work.
The test system of data set [19] is trypsin. Particulars: cited from earlier work.
In data set [20] the test system is chymotrypsin. Particulars: cited from earlier work.
Data set [21] is described as follows: 0.5 M NaOH in H2O-ACN (1:1). Particulars: 40 °C, up to 48 h.

T1 sequence (P00800 233-548): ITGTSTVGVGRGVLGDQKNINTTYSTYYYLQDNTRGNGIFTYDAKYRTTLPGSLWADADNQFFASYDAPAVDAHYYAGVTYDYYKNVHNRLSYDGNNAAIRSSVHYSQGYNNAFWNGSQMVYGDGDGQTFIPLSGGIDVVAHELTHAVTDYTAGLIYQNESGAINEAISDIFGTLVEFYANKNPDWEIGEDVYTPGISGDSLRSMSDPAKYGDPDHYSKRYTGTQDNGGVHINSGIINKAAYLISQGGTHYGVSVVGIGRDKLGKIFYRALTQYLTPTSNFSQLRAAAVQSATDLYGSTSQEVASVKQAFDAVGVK

Take GGAGHVPEYFVGIGTPISFYG [new compound]: the not cleaved entry is “no hydrolysis was observed, even after several hours at pH 2 at 37 °C” in data set [1] and “no cleavage was detected after 19 h” in data set [2]. The values for the cleaved bond result in data set [3] and in data set [4] were “Phe10-Val11; also recorded: Gly12-Ile13” and “Phe10-Val11; also recorded: Val11-Gly12”, respectively.

With `CC[C@H](C)[C@H](NC(=O)CNC(=O)[C@H](NC(=O)[C@H](Cc1ccccc1)NC(=O)[C@H](Cc1ccc(O)cc1)NC(=O)[C@@H]1CCC(=O)NCC(=O)NCC(=O)N[C@@H](C)C(=O)NCC(=O)N[C@@H](Cc2c[nH]cn2)C(=O)N[C@@H](C(C)C)C(=O)N2CCC[C@H]2C(=O)N1)C(C)C)C(=O)NCC(=O)N[C@H](C(=O)N1CCC[C@H]1C(=O)N[C@H](C(=O)N[C@@H](CO)C(=O)N[C@@H](Cc1ccccc1)C(=O)N[C@@H](Cc1ccc(O)cc1)C(=O)NCC(=O)O)[C@@H](C)CC)[C@@H](C)O` [New Compound] (GGAGHVPEYF[dV]GIGTPISFYG-OH; lactam N-8), the “Minimum inhibitory concentration (MIC)” value in data set [5] is given as above 128 µg/mL; in data set [6], above 128 µg/mL; in data set [7], above 128 µg/mL; in data set [8] it was above 256 µg/mL; in data set [9] it was above 128 µg/mL. In addition, the “MIC values in all cases” value in data set [10] is on record as “higher than 128 μg/mL”. The “Minimal biofilm eradication concentration (MBEC)” value in data set [11] is “greater than 128 μg/mL”. The “Hydrolysis by pepsin at 37 °C” value in data set [12] is recorded as “no hydrolysis was observed”. Further, in data set [12], the “Cleavage by pepsin at 50 °C” value is “no cleavage was detected”. Also, the “Outcome of thermolysin treatment” value in data set [13] is “double cleavage between Phe10-Val11 and Gly12-Ile13”.

As for `CC[C@H](C)[C@H](NC(=O)CNC(=O)[C@@H](NC(=O)[C@H](Cc1ccccc1)NC(=O)[C@H](Cc1ccc(O)cc1)NC(=O)[C@@H]1CCC(=O)NCC(=O)NCC(=O)N[C@@H](C)C(=O)NCC(=O)N[C@@H](Cc2cnc[nH]2)C(=O)N[C@@H](C(C)C)C(=O)N2CCC[C@H]2C(=O)N1)C(C)C)C(=O)NCC(=O)N[C@H](C(=O)N1CCC[C@H]1C(=O)N[C@H](C(=O)N[C@@H](CO)C(=O)N[C@@H](Cc1ccccc1)C(=O)N[C@@H](Cc1ccc(O)cc1)C(=O)NCC(=O)O)[C@@H](C)CC)[C@@H](C)O` [Native MccJ25, Microcin J25] (GGAGHVPEYFVGIGTPISFYG-OH; lactam N-8), in data set [12], the “Hydrolysis by pepsin at 37 °C” value was “no hydrolysis was observed” and the “Cleavage by pepsin at 50 °C” value is on record as “no cleavage was detected”. The “Outcome of thermolysin treatment” value in [13] is “double cleavage between Phe10-Val11 and Gly12-Ile13”. The “Stability to highly denaturing conditions” value in data set [14] is “stable”. Also, the “Thermal and proteolytic stability against several proteases” value in [15] was “high thermal and proteolytic stability”.

Regarding `CC[C@H](C)[C@H](NC(=O)CNC(=O)[C@@H](NC(=O)[C@H](Cc1ccccc1)NC(=O)[C@H](Cc1ccc(O)cc1)NC(=O)[C@@H]1CCC(=O)NCC(=O)NCC(=O)N[C@@H](C)C(=O)NCC(=O)N[C@@H](Cc2c[nH]cn2)C(=O)N[C@@H](C(C)C)C(=O)N2CCC[C@H]2C(=O)N1)C(C)C)C(=O)NCC(=O)N[C@H](C(=O)N1CCC[C@H]1C(=O)N[C@H](C(=O)N[C@@H](CO)C(=O)N[C@@H](Cc1ccccc1)C(=O)N[C@@H](Cc1ccc(O)cc1)C(=O)NCC(=O)O)[C@@H](C)CC)[C@@H](C)O` [Native MccJ25, Microcin J25] (GGAGHVPEYFVGIGTPISFYG-OH; lactam N-8), the “Minimum inhibitory concentration (MIC)” value in data set [16] is recorded as below 0.0625 µg/mL; in [17] it was 0.8 µg/mL (≈ 0.38 µM); in data set [5], above 128 µg/mL; in [6] it was above 128 µg/mL; in [8], 0.5 µg/mL (≈ 0.237 µM); in [9], above 128 µg/mL. Besides, in [11], the “Minimal biofilm eradication concentration (MBEC)” value is recorded as “greater than 128 μg/mL”.

As for GGAGHVPEYFVGIGTPISFYG [MccJ25], the not cleaved entry is “high thermal and proteolytic stability” in data set [18]; “high thermal and proteolytic stability” in data set [19]; “high thermal and proteolytic stability” in data set [20]; “no hydrolysis was observed, even after several hours at pH 2 at 37 °C” in data set [1]; “no cleavage was detected after 19 h” in data set [2]. In addition, the fragment found result in data set [21] is “new compound (epimerization of Val11)”. For the same molecule, the cleaved bond entry in [3] is reported as “Gly12-Ile13; also recorded: Phe10-Val11”; in data set [4], “Phe10-Val11; also recorded: Val11-Gly12”.

These data come from paper PMC6829517 (International Journal of Molecular Sciences, 2019).
